1 compound from patent US6767522B1, “Method for leaching sulfide-containing materials with microorganisms and use of sulphur-containing amino acids in leaching with microorganisms” (Hahn-Meitner-Institut Berlin GmbH, priority 1998, dated 2004) can be followed below.

The assay deals with Thiobacillus ferrooxidans. In words: Bacterial dissolution of pyrite layers with Thiobacillus ferrooxidans in the presence of cysteine. The conditions noted are these: for lag phase of bacterial pyrite dissolution: pH 1.6; for pyrite corrosion level (or dissolution rate): pH 1.6, S^o-FeS2 pyrite layer 100 nm, after 10-11 days. The procedure: Each time, 1 cm^3 of pyrite layers 100 nm in thickness (referred to as S^o-FeS2), prepared according to Example 1 using elemental sulfur as precursor, was added with 300 μl of aqueous solutions or suspensions of Thiobacillus ferrooxidans cells and cysteine at concentrations of from 8×10^−2 to 8×10^−5 M in an in situ pyrite culture chamber. The pH value of the solutions was adjusted to 1.6 using Tuovinen buffer (for 1 liter: KH2PO4=0.4 g, MgSO4.7H2O=0.4 g, (NH4)2SO4=0.4 g, […], with no iron(II) being added) [cf., Tuovinen and Kelly, Arch. Mikrobiol. 88, 285-298 (1973)].
FIG. 1 is a plot of the pyrite corrosion level (or dissolution rate) [%] as a function of time [days] for the various solutions.

Turning to `N[C@@H](CS)C(=O)O` [cysteine], the “lag phase of bacterial pyrite dissolution” value is, setting by setting: (8×10^−4 M cysteine in solution) “no longer occurs”; (8×10^−5 M cysteine in solution) “no longer occurs”. Further, the “pyrite corrosion level (or dissolution rate)” value reads like this: (8×10^−4 M cysteine in solution) 100%; (8×10^−5 M cysteine in solution) 100%.
